# According to patent US6437138B1, “3-pyridyloxymethyl heterocyclic ether compounds useful in controlling chemical synaptic transmission” (priority 1996, dated 2002):
# pEC50, pKi: −log10 of the molar value. Where a name gives a salt, the structure may show the parent alone. Read-outs that look alike come from different tables or passages of the source.
# Assays:
# [1] = biological target: neuronal nicotinic cholinergic channel receptors (Rattus norvegicus, UniProt P09483+P12390); settings: read-out: Binding Ki
# Sequence of neuronal nicotinic cholinergic channel receptors (P09483 31-630): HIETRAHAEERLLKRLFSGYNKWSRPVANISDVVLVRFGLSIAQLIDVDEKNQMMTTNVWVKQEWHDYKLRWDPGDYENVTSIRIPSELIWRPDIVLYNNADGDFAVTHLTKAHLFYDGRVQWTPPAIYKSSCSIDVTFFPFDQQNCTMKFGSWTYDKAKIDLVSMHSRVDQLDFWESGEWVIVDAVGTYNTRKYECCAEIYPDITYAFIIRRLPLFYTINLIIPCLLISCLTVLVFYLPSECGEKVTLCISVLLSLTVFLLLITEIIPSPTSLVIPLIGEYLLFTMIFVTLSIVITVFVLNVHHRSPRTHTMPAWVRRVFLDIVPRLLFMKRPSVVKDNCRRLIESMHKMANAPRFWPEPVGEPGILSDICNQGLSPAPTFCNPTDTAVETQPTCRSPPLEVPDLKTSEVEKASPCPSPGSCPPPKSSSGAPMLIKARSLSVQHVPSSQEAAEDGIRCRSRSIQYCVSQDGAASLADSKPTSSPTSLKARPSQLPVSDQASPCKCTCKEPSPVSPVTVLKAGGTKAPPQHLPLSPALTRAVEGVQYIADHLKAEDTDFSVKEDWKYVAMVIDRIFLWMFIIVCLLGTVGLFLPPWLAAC
# Sequence of neuronal nicotinic cholinergic channel receptors (P12390 25-500): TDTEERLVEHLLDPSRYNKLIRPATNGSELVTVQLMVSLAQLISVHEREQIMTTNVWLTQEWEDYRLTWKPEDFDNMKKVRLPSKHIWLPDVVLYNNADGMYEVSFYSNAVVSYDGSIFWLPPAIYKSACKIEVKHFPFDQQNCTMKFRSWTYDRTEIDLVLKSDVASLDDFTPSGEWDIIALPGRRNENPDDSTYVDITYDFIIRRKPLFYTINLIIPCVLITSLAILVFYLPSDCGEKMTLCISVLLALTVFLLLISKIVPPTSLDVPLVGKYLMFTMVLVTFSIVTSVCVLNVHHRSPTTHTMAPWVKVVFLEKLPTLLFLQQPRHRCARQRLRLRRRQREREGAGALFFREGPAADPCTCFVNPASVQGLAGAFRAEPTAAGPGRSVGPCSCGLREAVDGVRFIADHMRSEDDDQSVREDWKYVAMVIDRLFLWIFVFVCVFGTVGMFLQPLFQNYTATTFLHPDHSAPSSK
# Experimental: A. Protocol For Determination of Nicotinic Cholinergic Channel Receptor Binding Potencies of Ligands
# Binding of [^3H]-cytisine ([^3H]-CYT) to nicotinic receptors was accomplished using crude synaptic membrane preparations from whole rat brain (Pabreza et al., Molecular Pharmacol, 1990, 39:9). Washed membranes were stored at −80° C. prior to use. Frozen aliquots were slowly thawed and resuspended in 20 volumes of buffer (containing: 120 mM NaCl, 5 mM KCl, 2 mM MgCl2, 2 mM CaCl2 and 50 mM Tris-Cl, pH 7.4 @ 4° C.). After centrifuging at 20,000×g for 15 minutes, the pellets were resuspended in 30 volumes of buffer. Homogenate (containing 125-150 μg protein) was added to triplicate tubes containing concentrations of test compound and [^3H]-CYT (1.25 nM) in a final volume of 500 μL. Samples were incubated for 60 minutes at 4° C., then rapidly filtered through Whatman GF/B filters presoaked in 0.5% polyethyleneimine using 3×4 mL of ice-cold buffer. The filters are counted in 4 mL of Ecolume® (ICN). Nonspecific binding was determined in the presence of […] (−)-nicotine and values were expressed as a percentage of total binding.
# [2] = biological target: neuronal nicotinic cholinergic channels in IMR-32 cells (Homo sapiens, UniProt P30926+P32297); assay: 86Rb+ efflux in IMR-32 cells (activation, or inhibition of efflux elicited by (S)-nicotine); assay type: cell-based; settings: for pEC50 / IMR-32 maximal response / Emax: 86Rb+ efflux; for pEC50: activation; for IMR-32 maximal response / Emax: percent relative to the response elicited by 100 μM (S)-nicotine; for inhibition at 1 µM / Emax / inhibition at 10 µM: IMR-32; for Emax: read-out: IMR-32 maximal response; for inhibition at 10 µM: single dose 10 μM
# Description: For the purpose of directly evaluating the ability of test compounds to functionally activate or inhibit certain subtypes of neuronal nicotinic cholinergic channels, an assay to determine ^86Rb^+Efflux in IMR-32 cells was employed (Protocol B below).
# B. Protocols for the Determination of Functional Effects of Cholinerzic Channel Receptor Ligands on Synaptic Transmission
# Cells of the IMR-32 human neuroblastoma clonal cell line (ATCC, Rockville, Md.) were maintained in a log phase of growth according to established procedures (Lukas, 1993). Experimental cells were seeded at a density of 500,000 cells/ml into a 24-well tissue culture dish. Plated cells were allowed to proliferate for at least 48 hours before loading with 2 μCi/ml of ^86Rb^+ (35 Ci/mmol) overnight at 37° C. The ^86Rb^+ efflux assays were performed according to previously published protocols (Lukas, R. J., J. Pharmacol. Exp. Ther., 265: 294-302, 1993) except serum-free Dulbecco's Modified Eagle's Medium was used during the ^86Rb^+ loading, rinsing, and agonist-induced efflux steps.
# EC50 data and maximal responses (reported as percent relative to the response elicited by 100 μM (S)-nicotine) are shown for selected compounds of the invention. The inhibition data (given for a larger number of compounds) reflect inhibition of the efflux elicited by 100 μM (S)-nicotine for either a single dose (% inhibition at 1 μM or at 10 μM) or over a range of doses (IC50 of inhibition). […] This finding is in agreement with the results of others who have linked dopamine release, which is dependent upon the ion flux in synaptic transmission, to binding at nicotinic receptors (cf., for example, Lippiello and Caldwell, U.S. Pat. No. 5,242,935, issued Sep. 7, 1993; Caldwell and Lippiello, U.S. Pat. No. 5,248,690, issued Sep. 28, 1993; and Wonnacott et al., Prog. Brain Res., 79: 157-163 (1989)).
# [3] = displacement of [3H]-cytisine (1.25 nM), whole rat brain membranes, Ki from IC50 by Cheng and Prusoff correction
# [4] = inhibition of the efflux elicited by 100 μM (S)-nicotine, single dose 1 μM
# [5] = inhibition of the efflux elicited by 100 μM (S)-nicotine
Compound,"pKi [1, 3]","inhibition at 1 µM [2, 4]",further results
"5-(5,5-Dimethyl-1,3-hexadienyl)-6-chloro-3-(2-(R)-pyrrolidinylmethoxy)pyridine Citric Acid Salt [Example 55]",8.34,–,pEC50 [2]: < 2.00; IMR-32 maximal response [2]: 24.5%
5-Hexenyl-3-(1-methyl-2-(S)-pyrrolidinylmethoxy)pyridine Dihydrochloride [Example 12],9.49,–,"% Inhibition @ 1 μM [2, 4]: 25%"
"CN1CCC[C@H]1COc1cncc(-c2cccc([N+](=O)[O-])c2)c1 [Example 1, 5-(3-Nitrophenyl)-3-(1-methyl-2-(S)-pyrrolidinylmethoxy)pyridine Dihydrochloride]",9.34,13%,–
"CN1CCC[C@H]1COc1cncc(-c2cccc3ccccc23)c1 [Example 2, 5-(1-Naphthalenyl)-3-(1-methyl-2-(S)-pyrrolidinylmethoxy)pyridine Dihydrochloride]",8.38,47%,–
"COc1ccc(-c2cncc(OC[C@@H]3CCCN3C)c2)cc1 [Example 3, 5-(4-Methoxyphenyl)-3-(1-methyl-2-(S)-pyrrolidinylmethoxy)pyridine Dihydrochloride]",9.49,39%,–
"CN1CCC[C@H]1COc1cncc(-c2ccco2)c1 [Example 5, 5-(2-Furanyl-3-(1-methyl-2-(S)-pyrrolidinylmethoxy)pyridine Dihydrochloride]",9.72,27%,–
"CN1CCC[C@H]1COc1cncc(-c2cccs2)c1 [Example 6, 5-(2-Thienyyl)-3-(1-methyl-2-(S)-pyrrolidinylmethoxy)pyridine Dihydrochloride]",9.51,28%,–
"CN1CCC[C@H]1COc1cncc(-c2cccnc2)c1.Cl.Cl [Example 7, 5-(3-Pyridyl)-3-(1-methyl-2-(S)-pyrrolidinylmethoxy)pyridine Dihydrochloride]",9.57,–,melting point: 155 to 160 °C
"CC(=O)c1cncc(OC[C@@H]2CCCN2C)c1 [Example 10, 5-Acetyl-3-(1-methyl-2-(S)-pyrrolidinylmethoxy)pyridine Dihydrochloride]",8.92,32%,–
"CN1CCC[C@H]1COc1cncc(-c2ccc(F)cc2)c1 [Example 11, 5-(4-Fluorophenyl)-3-(1-methyl-2-(S)-pyrrolidinylmethoxy)pyridine Dihydrochloride]",9.96,38%,–
"CN1CCC[C@H]1COc1cncc(/C=C/c2ccccc2)c1 [Example 18, 5-trans-(2-Phenylethenyl)-3-(1-methyl-2-(S)-pyrrolidinylmethoxy)pyridine Dihydrochloride]",9.62,43%,–
"CN1CCC[C@H]1COc1cncc(C(=O)N2CCCC2)c1 [Example 19, 5-(1-Pyrrolidinylcarbonyl)-3-(1)-methyl-2-(S)-pyrrolidinylmethoxy)pyridine Dihydrochloride]",7.70,14%,–
"CN1CCC[C@H]1COc1cncc(CCc2ccccc2)c1 [Example 21, 5-(2-Phenylethyl)-3-(1-methyl-2-(S)-pyrrolidinylmethoxy)pyridine Dihydrochloride]",9.66,22%,–
"COC(=O)c1cncc(OC[C@@H]2CCCN2C)c1 [Example 27, 5-Methoxycarbonol-3-(1-methyl-2-(S)-pyrrolidinylmethoxy)pyridine Dihydrochloride]",8.82,26%,–
"CN1CCC[C@H]1COc1cncc(CCc2ccncc2)c1 [Example 29, 5-(2-(4-Pyridinnyl)ethyl)-3-(1-methyl-2-(S)-pyrrolidinnylmethoxy)pyridine Trihydrochloride]",10.19,32%,–
"CN1CCC[C@H]1COc1cncc(-c2ccc3ccccc3c2)c1 [Example 31, 5-(2-Naphthalenyl-3-(1-methyl-2-(S)-pyrrolidinylmethoxy)pyridine Dihydrochloride]",9.48,37%,–
"Cl.Cl.Clc1ncc(OC[C@@H]2CCCN2)cc1-c1cccnc1 [Example 34, 5-(3-Pyridinyl)-6-chloro-3-(2-(S)-pyrrolidinylmethoxy)pyridine Dihydrochloride]",10.68,–,melting point: 195 to 198 °C; Emax [2]: 88%
"CN1CCC[C@H]1COc1cncc(-c2cnc3ccccc3c2)c1 [Example 35, 5-(3-Ouinolinyl)-3-(1-methyl-2-(S)-pyrrolidinylmethoxy)pyridine Trihydrochloride]",9.41,34%,–
"CN1CCC[C@H]1COc1cncc(-c2cc(C(F)(F)F)cc(C(F)(F)F)c2)c1 [Example 37, 5-(3,5-bis(Trifluoromehyl)phenyl)-3-(1-methyl-2-(S)-pyrrolidinylmethoxy)pyridine Dihydrochloride]",8.62,41%,–
"CN1CCC[C@H]1COc1cncc(-c2ccc(F)c(Cl)c2)c1 [Example 42, 5-(3-Chloro-4-fluorolphenyl)-3-(1-methyl-2-(S)-pyrrolidinylmethoxy)pyridine Dihydrochloride]",10.26,38%,–
"CN1CCC[C@H]1COc1cncc(-c2ccccc2C=O)c1 [Example 44, 5-(2-Formylphenyl)-3-(1-methyl-2-(S)-pyrrolidinylmethoxy)pyridine Dihydrochloride]",9.25,30%,"inhibition at 10 µM [2, 5]: 97%"
"Cc1ccccc1-c1cncc(OC[C@@H]2CCCN2C)c1 [Example 45, 5-(2-Methylphenyl)-3-(1-methyl-2-(S)-pyrrolidinylmethoxy)pyridine Dihydrochloride]",8.96,41%,"inhibition at 10 µM [2, 5]: 100%"
"CN1CCC[C@H]1COc1cncc(-c2ccc(C(F)(F)F)cc2)c1 [Example 46, 5-(4-(Trifluoromethyl)phenyl)-3-(1)-methyl-2-(S)-pyrrolidinylmethoxy)pyridine Dihydrochloride]",9.82,37%,–
"CCCCC#Cc1cncc(OC[C@@H]2CCN2)c1.Cl.Cl [Example 58, 5-Hexynyl-3-(2-(S)-azetidinylmethoxy)pyridine Dihydrochloride]",10.25,–,pEC50 [2]: 6.10; IMR-32 maximal response [2]: 47%
"CN1CCC[C@H]1COc1cncc(-c2ccccc2)c1.Cl.Cl [Example 90, 5-Phenyl-3-(1-methyl-2-(S)-pyrrolidinylmethoxy)pyridine Dihydrochloride]",9.95,–,melting point: 88 to 90 °C
"CN1CC[C@@H]1COc1cncc(-c2ccsc2)c1 [Example 91, 5-(3-Thienyl)-3-(1-methyl-2-(R)-azetdinylmethoxy)pyridine Dihydrochloride]",–,–,pKi [1]: 8.74
"CN1CCC[C@@H]1COc1cnc(Cl)c(-c2cncnc2)c1 [Example 180, 6-Chloro-3-(1-methyl-2-(R)-pyrrolidinylmethoxy)-5-pyrimidinylpyridine Hydrochloride]",8.32,–,–
"C=Cc1cc(OC[C@@H]2CCCN2)cnc1Cl.Cl [Example 191, 6-Chloro-5-ethenyl-3-(2-(S)-pyrrolidinylmethoxy)pyridine Hydrochloride]",–,–,melting point: 195 to 197 °C; Emax [2]: 106%
"C=Cc1cc(OC[C@@H]2CCCN2)cnc1C=C.Cl [Example 193, 5,6-Diethenyl-3-(2-(S)-pyrrolidinylmethoxy)pyridine Hydrochloride]",–,–,melting point: 186 to 188 °C; Emax [2]: 9.5%
